Assay results as given in ChEMBL document CHEMBL2440076, “New triarylpyrazoles as broad-spectrum anticancer agents: design, synthesis, and biological evaluation” (Eur J Med Chem, 2013).

Tests used:
Type in all cases: functional
ACHN = experiment: Growth inhibition of human ACHN cells assessed as cell growth at 5X10'-7 M after 48 hrs by sulforhodamine B assay; conditions: read-out: Activity
[1] = Growth inhibition of human HCC2998 cells assessed as cell growth at 5X10'-6 M after 48 hrs by sulforhodamine B assay; conditions: HCC 2998, 48 h, read-out: Activity
OVCAR-3 [2] = experiment: Growth inhibition of human OVCAR3 cells assessed as cell growth at 5X10'-5 M after 48 hrs by sulforhodamine B assay; conditions: OVCAR-3, 48 h, read-out: Activity
SNB-19 = experiment: Growth inhibition of human SNB19 cells assessed as cell growth at 5X10'-9 M after 48 hrs by sulforhodamine B assay; conditions: SNB-19, 48 h, read-out: Activity
MDA-MB-468 = experiment: Growth inhibition of human MDA-MB-468 cells assessed as cell growth at 5X10'-5 M after 48 hrs by sulforhodamine B assay; conditions: MDA-MB-468, 48 h, read-out: Activity
LOX IMVI [3] = experiment: Growth inhibition of human LOXIMVI cells assessed as cell growth at 5X10'-9 M after 48 hrs by sulforhodamine B assay; conditions: read-out: Activity
SF-539 [4] = experiment: Growth inhibition of human SF539 cells assessed as cell growth at 5X10'-7 M after 48 hrs by sulforhodamine B assay; conditions: SF-539, 48 h, read-out: Activity
PC-3 [5] = experiment: Growth inhibition of human PC3 cells assessed as cell growth at 5X10'-8 M after 48 hrs by sulforhodamine B assay; conditions: PC-3, 48 h, read-out: Activity
A498 [6] = experiment: Growth inhibition of human A498 cells assessed as cell growth at 5X10'-8 M after 48 hrs by sulforhodamine B assay; conditions: A498, 48 h, read-out: Activity
U-251 [7] = experiment: Growth inhibition of human U251 cells assessed as cell growth at 5X10'-5 M after 48 hrs by sulforhodamine B assay; conditions: U-251, 48 h, read-out: Activity
HOP-92 = experiment: Growth inhibition of human HOP92 cells assessed as cell growth at 5X10'-6 M after 48 hrs by sulforhodamine B assay; conditions: HOP-92, 48 h, read-out: Activity
[8] = Growth inhibition of human NCI-ADR-RES cells assessed as cell growth at 5X10'-5 M after 48 hrs by sulforhodamine B assay; conditions: read-out: Activity
SF-539 [9] = experiment: Growth inhibition of human SF539 cells assessed as cell growth at 5X10'-5 M after 48 hrs by sulforhodamine B assay; conditions: SF-539, 48 h, read-out: Activity
RPMI-8226 = experiment: Growth inhibition of human RPMI8226 cells assessed as cell growth at 5X10'-9 M after 48 hrs by sulforhodamine B assay; conditions: RPMI-8226, 48 h, read-out: Activity
OVCAR-4 = experiment: Growth inhibition of human OVCAR4 cells assessed as cell growth at 5X10'-5 M after 48 hrs by sulforhodamine B assay; conditions: OVCAR-4, 48 h, read-out: Activity
COLO 205 = experiment: Growth inhibition of human COLO205 cells assessed as cell growth at 5X10'-6 M after 48 hrs by sulforhodamine B assay; conditions: COLO 205, 48 h, read-out: Activity
SK-MEL-2 = experiment: Growth inhibition of human SK-MEL-2 cells assessed as cell growth at 5X10'-5 M after 48 hrs by sulforhodamine B assay; conditions: SK-MEL-2, 48 h, read-out: Activity
SK-OV-3 [10] = experiment: Growth inhibition of human SKOV3 cells assessed as cell growth at 5X10'-9 M after 48 hrs by sulforhodamine B assay; conditions: SK-OV-3, 48 h, read-out: Activity
NCI-H23 = experiment: Growth inhibition of human NCI-H23 cells assessed as cell growth at 5X10'-7 M after 48 hrs by sulforhodamine B assay; conditions: NCI-H23, 48 h, read-out: Activity
SK-OV-3 [11] = experiment: Growth inhibition of human SKOV3 cells assessed as cell growth at 5X10'-6 M after 48 hrs by sulforhodamine B assay; conditions: SK-OV-3, 48 h, read-out: Activity
PC-3 [12] = experiment: Growth inhibition of human PC3 cells assessed as cell growth at 5X10'-5 M after 48 hrs by sulforhodamine B assay; conditions: PC-3, 48 h, read-out: Activity
HOP-62 = experiment: Growth inhibition of human HOP62 cells assessed as cell growth at 5X10'-5 M after 48 hrs by sulforhodamine B assay; conditions: HOP-62, 48 h, read-out: Activity
CAKI-1 = experiment: Growth inhibition of human CAKI-1 cells assessed as cell growth at 5X10'-6 M after 48 hrs by sulforhodamine B assay; conditions: CAKI-1, 48 h, read-out: Activity
U-251 [13] = experiment: Growth inhibition of human U251 cells assessed as cell growth at 5X10'-9 M after 48 hrs by sulforhodamine B assay; conditions: U-251, 48 h, read-out: Activity
UO-31 = experiment: Growth inhibition of human UO31 cells assessed as cell growth at 5X10'-9 M after 48 hrs by sulforhodamine B assay; conditions: UO-31, 48 h, read-out: Activity
M14 = experiment: Growth inhibition of human M14 cells assessed as cell growth at 5X10'-5 M after 48 hrs by sulforhodamine B assay; conditions: M14, 48 h, read-out: Activity
HL-60(TB) = experiment: Growth inhibition of human HL-60(TB) cells assessed as cell growth at 5X10'-7 M after 48 hrs by sulforhodamine B assay; conditions: HL-60, 48 h, read-out: Activity
SK-MEL-5 [14] = experiment: Growth inhibition of human SK-MEL-5 cells assessed as cell growth at 5X10'-7 M after 48 hrs by sulforhodamine B assay; conditions: SK-MEL-5, 48 h, read-out: Activity
OVCAR-3 [15] = experiment: Growth inhibition of human OVCAR3 cells assessed as cell growth at 5X10'-9 M after 48 hrs by sulforhodamine B assay; conditions: OVCAR-3, 48 h, read-out: Activity
T47D = experiment: Growth inhibition of human T47D cells assessed as cell growth at 5X10'-5 M after 48 hrs by sulforhodamine B assay; conditions: read-out: Activity
SW-620 [16] = experiment: Growth inhibition of human SW620 cells assessed as cell growth at 5X10'-6 M after 48 hrs by sulforhodamine B assay; conditions: SW-620, 48 h, read-out: Activity
[17] = Growth inhibition of human Hs 578T cells assessed as cell growth at 5X10'-5 M after 48 hrs by sulforhodamine B assay; conditions: read-out: Activity
SW-620 [18] = experiment: Growth inhibition of human SW620 cells assessed as cell growth at 5X10'-5 M after 48 hrs by sulforhodamine B assay; conditions: SW-620, 48 h, read-out: Activity
A498 [19] = experiment: Growth inhibition of human A498 cells assessed as cell growth at 5X10'-6 M after 48 hrs by sulforhodamine B assay; conditions: A498, 48 h, read-out: Activity
MDA-MB-435 = experiment: Growth inhibition of human MDA-MB-435 cells assessed as cell growth at 5X10'-6 M after 48 hrs by sulforhodamine B assay; conditions: MDA-MB-435, 48 h, read-out: Activity
SK-MEL-5 [20] = experiment: Growth inhibition of human SK-MEL-5 cells assessed as cell growth at 5X10'-9 M after 48 hrs by sulforhodamine B assay; conditions: SK-MEL-5, 48 h, read-out: Activity
LOX IMVI [21] = experiment: Growth inhibition of human LOXIMVI cells assessed as cell growth at 5X10'-7 M after 48 hrs by sulforhodamine B assay; conditions: read-out: Activity

SMILES	growth at 0.5 µM (ACHN) [%]	growth at 5 µM [1] [%]	growth at 50 µM (OVCAR-3 [2]) [%]	growth at 0.005 µM (SNB-19) [%]	growth at 50 µM (MDA-MB-468) [%]	growth at 0.005 µM (LOX IMVI [3]) [%]	growth at 0.5 µM (SF-539 [4]) [%]	growth at 0.05 µM (PC-3 [5]) [%]	growth at 0.05 µM (A498 [6]) [%]	growth at 50 µM (U-251 [7]) [%]	growth at 5 µM (HOP-92) [%]	growth at 50 µM [8] [%]	growth at 50 µM (SF-539 [9]) [%]	growth at 0.005 µM (RPMI-8226) [%]	growth at 50 µM (OVCAR-4) [%]	growth at 5 µM (COLO 205) [%]	growth at 50 µM (SK-MEL-2) [%]	growth at 0.005 µM (SK-OV-3 [10]) [%]	growth at 0.5 µM (NCI-H23) [%]	growth at 5 µM (SK-OV-3 [11]) [%]	further results
O=C(Nc1cccc(-n2cc(-c3ccncc3)c(-c3ccc(Cl)c(O)c3)n2)c1)Nc1cc(C(F)(F)F)cc(C(F)(F)F)c1	55	-43	-94	90	-55	98	82	89	86	-91	-38	-56	-96	97	-74	-94	-77	103	80	-13	growth at 50 µM (PC-3 [12]): -49%; growth at 50 µM (HOP-62): -90%; growth at 5 µM (CAKI-1): -4%; growth at 0.005 µM (U-251 [13]): 95%; growth at 0.005 µM (UO-31): 97%; growth at 50 µM (M14): -86%; growth at 0.5 µM (HL-60(TB)): 93%; growth at 0.5 µM (SK-MEL-5 [14]): 62%; growth at 0.005 µM (OVCAR-3 [15]): 109%; growth at 50 µM (T47D): -25%; growth at 5 µM (SW-620 [16]): 1%; growth at 50 µM [17]: -40%; growth at 50 µM (SW-620 [18]): -75%; growth at 5 µM (A498 [19]): -4%; growth at 5 µM (MDA-MB-435): -31%; growth at 0.005 µM (SK-MEL-5 [20]): 104%; growth at 0.5 µM (LOX IMVI [21]): 76%
COc1cc(-c2nn(-c3cccc(NC(=O)Nc4ccc(Cl)c(Cl)c4)c3)cc2-c2ccncc2)ccc1Cl	70	2	-50	92	-31	97	78	95	89	-49	-40	-9	-37	96	5	-89	-59	104	91	12	growth at 50 µM (PC-3 [12]): -22%; growth at 50 µM (HOP-62): -9%; growth at 5 µM (CAKI-1): -13%; growth at 0.005 µM (U-251 [13]): 96%; growth at 0.005 µM (UO-31): 88%; growth at 50 µM (M14): -52%; growth at 0.5 µM (HL-60(TB)): 98%; growth at 0.5 µM (SK-MEL-5 [14]): 78%; growth at 0.005 µM (OVCAR-3 [15]): 104%; growth at 50 µM (T47D): 9%; growth at 5 µM (SW-620 [16]): 11%; growth at 50 µM [17]: 4%; growth at 50 µM (SW-620 [18]): 7%; growth at 5 µM (A498 [19]): -3%; growth at 5 µM (MDA-MB-435): -39%; growth at 0.005 µM (SK-MEL-5 [20]): 98%; growth at 0.5 µM (LOX IMVI [21]): 82%
